# Measurements: patent US10696947B2, “Culture medium composition for maturating cardiomyocytes derived from pluripotent mammalian stem cells” (Ncardia B.V., priority 2013, dated 2020)
# Entries after “also recorded” stand apart in the source; their conditions may differ.
# What was measured:
# Assay type in all cases: cell-based
# [1] = test system: foetal-like (immature) cardiomyocytes derived from human pluripotent embryonic stem cells (PESCs); assay: Morphological features by alpha-actinin immunofluorescence; conditions: 100 ng/ml T3 in culture medium composition, 5 days, compared to medium lacking T3
# Method: Foetal-like (immature) cardiomyocytes derived from PESC in in vitro culture were divided in two experimental groups. The first group was exposed to a culture medium composition as taught herein but which lacked T3 (control situation). The second group was exposed to a culture medium composition as taught herein but which comprised T3 (100 ng/ml). Both groups were incubated in their respective culture medium composition for 5 days, At the term of the treatment, cardiomyocytes from both experimental groups were fixed in 4% paraformaldehyde, permeabilised with phosphate buffer saline (PBS)/0.1% Triton X-100 (Sigma-Aldrich), and blocked with phosphate buffer saline (PBS)/0.1% Triton X-100 (Sigma-Aldrich) 1% BSA. Samples were incubated 1-hour at room temperature with a primary antibodies specific for the following: alpha-actinin (Eptomics Ab 68167) (at a concentration of 1/400), The primary antibody was detected with either Cy3- or Alexa-Fluor 647-conjugated secondary antibodies (at a concentration of 1/250). Images were captured using either a Leica SP5-STED or a Leica SP5 confocal laser-scanning microscope (Leica Microsystems).
# [2] = test system: foetal-like (immature) cardiomyocytes derived from human pluripotent embryonic stem cells (PESCs); assay: Electrophysiological properties by perforated patch clamp; conditions: 100 ng/ml T3 in culture medium, 12 days, compared to medium lacking T3
# Method: Foetal-like (immature) cardiomyocytes derived from PESC in in vitro culture were divided in two experimental groups. The first group was exposed to a culture medium composition as taught herein but which lacked T3 (control situation). The second group was exposed to a culture medium composition as taught herein but which comprised T3 (100 ng/ml). Both groups were incubated in their respective culture medium composition for 12 days. At the term of the treatment, foetal-like (immature) cardiomyocytes from both experimental groups were subjected to a patch clamp procedure.
# Patch clamp electrophysiology was performed as described by Bellin, M. et al. EMBO J 32, 3161-3175 (2013)). using minor modifications. Action potentials from small groups of cells (5-10 cells) were measured with the perforated patch clamp technique using an Axopatch 200b amplifier (Molecular Devices) and low resistance patch pipettes (1.5-2.5 MΩ). Data acquisition and analyses of action potentials were performed with pClamp 10 (axon instruments) and custom made software. Action Potentials were corrected for the calculated liquid junction potential (−15 mV).
# Action potentials from spontaneous beating cells were measured at […] using a modified Tyrode's solution containing (in mM): 140 NaCl, 5.4 KCl, 1.8 CaCl2, 1.0 MgCl2, 5.5 glucose, 5.0 HEPES; pH7.2 (NaOH). The pipette solution contained (in mM): 125 K-gluconate, 20 KCl, 5 NaCl, 0.22 amphotericin-B, 10 HEPES; pH 7.2 (KOH). The resting membrane potential (RMP), maximal upstroke velocity (dV/dt max), AP amplitude in mV (APA), and AP duration in milli-seconds (APD) at 20, 50 and 90% repolarization (APD50, and APD90, respectively) were analyzed. Upstroke velocity was calculated from the first derivative of the change in voltage as a function of time. Thus the maximum upstroke velocity (dV/dt max) is equal to the maximum positive value of the first derivative of the action potential. Data from 10 consecutive action potentials were averaged.
# [3] = test system: foetal-like (immature) cardiomyocytes derived from PESC; assay: Metabolic profile by TMRM assay (flow cytometry); conditions: 100 ng/ml T3 in culture medium, 17 days, 5 nM TMRM, compared to medium lacking T3
# Method: Foetal-like (immature) cardiomyocytes derived from PESC in in vitro culture were divided in two experimental groups. The first group was exposed to a culture medium composition as taught herein but which lacked T3 (control situation). The second group was exposed to a culture medium composition as taught herein but which comprised T3 (100 ng/ml). Both groups were incubated in their respective culture medium composition for 17 days. An amount of 5 nM TMRM (Invitrogen) was added in the respective media the day before measurement. Cells were dissociated using 5× Tryple, but with TMRM included in all solutions and also present during measurement, Measurements were performed on a Miltenyi MACSquant VYB flow cytometer.
smiles,measurement,setting,value
"N[C@@H](Cc1cc(I)c(Oc2ccc(O)c(I)c2)c(I)c1)C(=O)O [T3, triiodothyronine]",morphological features (maturation into adult-like cardiomyocytes),[1],"polarization of cells, improved sarcomeric organization, and elongated shape"
same,amplitude of the action potential,[2],greater amplitude of the action potential; also recorded: increased amplitude of the action potential
same,maximal upstroke velocity (dV/dt max),[2],greater maximal upstroke velocity; also recorded: increased maximum upstroke velocity
same,resting membrane potential,[2],lower resting membrane potential
same,mitochondrial activity (TMRM-associated orange fluorescence),[3],enhanced mitochondrial activity; also recorded: increased mitochondrial activity
